Measured values reported in patent US20260226019A1, “NEGATIVE ALLOSTERIC MODULATORS OF METABOTROPIC GLUTAMATE RECEPTOR 2” (Vanderbilt University, priority 2023, published 2026).

What was measured:
human mGlu2 = biological target: T1, human mGlu2 (Homo sapiens, UniProt Q14416); experiment: mGlu GIRK cell-based thallium flux assay, human mGlu2; settings: HEK-293 cells co-expressing human mGlu2 and GIRK, EC80 glutamate, single experiment
T1 construct: expressed in transfected cells; host or cells: HEK-293 stably co-expressing GIRK channels
T1 sequence (Q14416 19-872): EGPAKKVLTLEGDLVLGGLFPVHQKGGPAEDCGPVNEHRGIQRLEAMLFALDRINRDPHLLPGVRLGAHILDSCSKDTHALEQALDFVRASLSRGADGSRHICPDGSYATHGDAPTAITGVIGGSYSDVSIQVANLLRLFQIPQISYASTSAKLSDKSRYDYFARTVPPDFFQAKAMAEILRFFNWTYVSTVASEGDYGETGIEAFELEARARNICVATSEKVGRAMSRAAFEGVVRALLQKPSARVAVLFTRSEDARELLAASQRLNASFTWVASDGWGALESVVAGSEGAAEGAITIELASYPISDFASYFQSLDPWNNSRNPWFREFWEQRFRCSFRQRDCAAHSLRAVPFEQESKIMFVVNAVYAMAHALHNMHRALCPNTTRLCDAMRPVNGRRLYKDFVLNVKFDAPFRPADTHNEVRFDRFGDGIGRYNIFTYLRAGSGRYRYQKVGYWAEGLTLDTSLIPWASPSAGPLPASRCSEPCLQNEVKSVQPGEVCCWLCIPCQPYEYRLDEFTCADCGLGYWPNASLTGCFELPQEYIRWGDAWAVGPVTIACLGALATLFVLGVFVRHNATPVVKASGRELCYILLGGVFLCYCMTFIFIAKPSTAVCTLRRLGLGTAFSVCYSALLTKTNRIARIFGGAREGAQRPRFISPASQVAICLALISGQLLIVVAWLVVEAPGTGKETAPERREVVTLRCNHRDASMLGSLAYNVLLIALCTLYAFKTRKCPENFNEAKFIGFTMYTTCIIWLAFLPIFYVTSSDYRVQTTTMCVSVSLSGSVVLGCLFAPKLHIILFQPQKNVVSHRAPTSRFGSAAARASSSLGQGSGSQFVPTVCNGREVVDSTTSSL
Procedure: (§1) Human embryonic kidney (HEK-293) cell lines stably co-expressing human or rat mGlu2 and G protein-coupled inwardly rectifying potassium (GIRK) channels, or human mGlu3 and GIRK, were used for in vitro evaluation of compound activity in thallium flux assay using a fluorescent thallium indicator dye.
(§2) The day before the assay, GIRK cells co-expressing human mGlu3, human or rat mGlu2, as described above, were plated in black-walled, clear-bottomed, amine-coated 384-well plates at a density of 15,000 cells/[…]/well in the assay medium (glutamine-depleted basal DMEM supplemented with 10% dialyzed FBS, 20 mM HEPES, 1 mM sodium pyruvate). Cells were incubated at 37° C. in the presence of 5% CO2. The next day, assay buffer (Hanks balanced salt solution, 20 mM HEPES, 4.16 mM sodium bicarbonate, pH 7.2) was prepared to dilute compounds and Thallos AM fluorescent dye solution. The 2× Thallos dye solution (final concentration 0.34 μM to the cells) was prepared by mixing the dye stock (2.97 mM in DMSO) to 1:1 with 10% pluronic acid before adding to the assay buffer. Cells were washed with assay buffer using a microplate washer to remove the medium, resulting in 20 μL of buffer remaining in each well. […] During the cell dye loading incubation period, a 10-point concentration serial dilution of compound was created from a 10 mM DMSO compound stock by performing a 1:3 serial dilution in DMSO using the Bravo liquid handler. The 2× compound plate was generated by transferring 0.24 μL of the diluted compound in each well to a daughter plate using an Echo acoustic liquid handler. This is further diluted in 40 μL assay buffer, resulting in a range from […] to 1.5 nM final concentration in the assay. The agonist plate (5×) was prepared to include EC80 glutamate concentration (a concentration to elicit 80% of a maximally effective glutamate concentration) in thallium buffer (125 mM sodium bicarbonate, 1 mM magnesium sulfate, 1.8 mM calcium sulfate, 5 mM glucose, 10 mM HEPES, pH 7.2, 12.5 mM thallium sulfate).
(§3) After dye-loading, cell plates were washed with assay buffer to remove excess extracellular dye using a microplate washer, resulting in 20 μL of buffer remaining in each well. After a ten-minute equilibration period, cell, compound and agonist plates were loaded into a Hamamatsu μCell kinetic imaging plate reader equipped with liquid handler to monitor fluorescence changes at 480 nm excitation and 540 nm emission settings. Briefly, after collection of baseline fluorescence, 20 μL of compound was added and incubated for two minutes and twenty seconds. This is immediately followed by adding 10 μL of glutamate-thallium buffer to the wells containing compound. The fluorescent signal was monitored an additional 2.5 minutes after the glutamate addition. Multiple reference wells containing no compound received either no glutamate (for a baseline reference), EC80 glutamate, or ECmax glutamate (for normalization to maximum response). […] Each compound concentration series occurred one time in each plate, and replicates from two or three plates were used in each experimental run. Thallium solutions were handled and disposed of according to guidelines from the Vanderbilt University Chemical Safety department.
(§4) Data were normalized using a static ratio function (F/F0) by dividing every fluorescent measurement by the initial fluorescent value for the corresponding well. The increase in signal resulting from the glutamate/thallium addition of the second add was measured by determining the slope from 3 seconds to 13 seconds after the addition. The average of all baseline slopes (no compound, no glutamate) was determined and this value was subtracted from all other slope values. The average of all ECmax slopes was determined and this value was used to normalize the baseline-corrected slopes to a percent max value (% Emax).

human mGlu3 = biological target: T2, human mGlu3 (Homo sapiens, UniProt Q14832); experiment: mGlu GIRK cell-based thallium flux assay, human mGlu3; settings: HEK-293 cells co-expressing human mGlu3 and GIRK, EC80 glutamate, single experiment
T2 construct: expressed in transfected cells; host or cells: HEK-293 stably co-expressing GIRK channels
T2 sequence (Q14832 23-879): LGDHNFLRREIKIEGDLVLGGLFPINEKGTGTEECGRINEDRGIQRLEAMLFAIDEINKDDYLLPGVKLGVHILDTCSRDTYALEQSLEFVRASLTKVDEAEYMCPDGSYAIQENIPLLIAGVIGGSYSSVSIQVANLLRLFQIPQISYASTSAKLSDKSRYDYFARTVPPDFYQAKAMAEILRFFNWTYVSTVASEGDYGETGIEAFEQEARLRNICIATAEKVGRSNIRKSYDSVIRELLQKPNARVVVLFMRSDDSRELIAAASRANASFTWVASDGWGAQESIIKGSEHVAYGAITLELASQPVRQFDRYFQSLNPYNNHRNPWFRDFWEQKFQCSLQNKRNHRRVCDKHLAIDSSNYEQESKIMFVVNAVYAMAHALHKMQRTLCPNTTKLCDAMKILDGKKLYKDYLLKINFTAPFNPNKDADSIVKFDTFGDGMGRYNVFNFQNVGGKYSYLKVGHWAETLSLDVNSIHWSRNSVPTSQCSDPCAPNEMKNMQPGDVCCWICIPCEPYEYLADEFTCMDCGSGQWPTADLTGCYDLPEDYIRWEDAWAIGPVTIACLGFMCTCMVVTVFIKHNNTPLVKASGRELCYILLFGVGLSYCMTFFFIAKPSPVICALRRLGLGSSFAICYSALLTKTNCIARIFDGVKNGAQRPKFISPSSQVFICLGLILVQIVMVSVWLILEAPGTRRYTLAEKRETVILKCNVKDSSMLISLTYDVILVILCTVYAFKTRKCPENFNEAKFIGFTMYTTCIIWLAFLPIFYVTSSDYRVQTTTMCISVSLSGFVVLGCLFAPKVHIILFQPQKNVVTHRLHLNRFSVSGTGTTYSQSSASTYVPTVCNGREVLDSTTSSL
Procedure: as §1, §2, §3, §4

[1] = system: group II mGlu receptors (mGlu2 and mGlu3); settings: cited from earlier work
[2] = system: group II mGlu receptors (mGlu2 and mGlu3); settings: CFS model; cited from earlier work

SMILES | IC50 (human mGlu2) | Human mGlu3 GIRK IC50 (nM) (human mGlu3) | IC50 (human mGlu3) | also measured
Cn1nc(C(F)(F)F)cc1-c1cc(-c2ccc(F)cc2F)cc2c1CNC2=O [Compound 78, 6-(2,4-difluorophenyl)-4-(1-methyl-3-(trifluoromethyl)-1H-pyrazol-5-yl)isoindolin-1-one] | 0.204 µM | Inactive | – | –
O=C1NCc2c1cc(-c1ccc(F)cc1F)cc2-c1cnn(C2CC2)c1 [Compound 18, 4-(1-cyclopropyl-1H-pyrazol-4-yl)-6-(2,4-difluorophenyl)isoindolin-1-one] | 0.291 µM | Inactive | – | –
O=C1NCc2c1cc(-c1ccc(F)cc1F)cc2N1CCOCC1 [Compound A4, 6-(2,4-difluorophenyl)-4-morpholinoisoindolin-1-one] | 0.38 µM | – | > 10 µM | –
CC(C)Oc1cc(-c2cc3c(c(-c4cnsc4)c2)CNC3=O)ccc1C#N [Compound 62, 2-isopropoxy-4-(7-(isothiazol-4-yl)-3-oxoisoindolin-5-yl)benzonitrile] | – | – | > 10 µM | Human mGlu2 GIRK IC50 (nM) (human mGlu2): Inactive
O=C1NCc2c1cc(-c1ccc(F)cc1F)cc2-c1ccc2nccn2c1 [Compound 38, 6-(2,4-difluorophenyl)-4-(imidazo[1,2-a]pyridin-6-yl)isoindolin-1-one] | 0.198 µM | – | 6.41 µM | –
O=C1NCc2c1cc(-c1ccc(F)cc1F)cc2C1CCNC1 (centres unmarked) [Compound B6, 6-(2,4-difluorophenyl)-4-(pyrrolidin-3-yl)isoindolin-1-one] | > 10 µM | – | > 10 µM | –
CC1(C)CCN(c2cc(-c3ccc(F)cc3F)cc3c2CNC3=O)CC1 [Compound A16, 6-(2,4-difluorophenyl)-4-(4,4-dimethylpiperidin-1-yl)isoindolin-1-one] | 3.95 µM | – | > 10 µM | –
CC(=O)Nc1ccc(-c2cc(-c3ccc(F)cc3F)cc3c2CNC3=O)cn1 [Compound 34, N-(5-(6-(2,4-difluorophenyl)-1-oxoisoindolin-4-yl)pyridin-2-yl)acetamide] | 0.185 µM | Inactive | – | –
CC(C)n1nccc1-c1cc(C2=CCC3(CC2)OCCO3)cc2c1CNC2=O [Compound 87, 4-(1-isopropyl-1H-pyrazol-5-yl)-6-(1,4-dioxaspiro[4.5]dec-7-en-8-yl)isoindolin-1-one] | 3.81 µM | Inactive | – | –
O=C1NCc2c1cc(-c1ccc(F)cc1F)cc2-c1ccc(C2CC2)nc1 [Compound 36, 4-(6-cyclopropylpyridin-3-yl)-6-(2,4-difluorophenyl)isoindolin-1-one] | 1.23 µM | – | > 10 µM | –
O=C1NCc2c(CN3CCSCC3)cc(-c3ccc(F)cc3F)cc21 [Compound B1, 6-(2,4-difluorophenyl)-4-(thiomorpholinomethyl)isoindolin-1-one] | 0.18 µM | – | 4.62 µM | –
CCCCCCCOC(=O)[C@@]1(F)[C@@H]2C[C@@H](OCc3ccc(Cl)c(Cl)c3)[C@@](N)(C(=O)O)[C@@H]21 [BCI-838] | – | – | – | Dutch APP transgene-associated learning and memory impairment ([1]; three months of treatment): reversed; anxiolytic effects ([1]; three months of treatment): anxiolytic effects; levels of monomeric and oAβ peptides in the hippocampus and cortex ([1]; three months of treatment, two AD mouse models): decreased; hippocampal progenitor cell proliferation ([1]; wild-type and Alzheimer's diseased mice, 3 months): stimulated
Cn1cc(-c2cc(-c3ccc(F)cc3F)cc3c2CNC3=O)cn1 [Compound 19, 6-(2,4-difluorophenyl)-4-(1-methyl-1H-pyrazol-4-yl)isoindolin-1-one] | 0.181 µM | Inactive | – | –
N#CC1CCCN(c2cc(-c3ccc(F)cc3F)cc3c2CNC3=O)C1 (centres unmarked) [Compound A10, 1-(6-(2,4-difluorophenyl)-1-oxoisoindolin-4-yl)piperidine-3-carbonitrile] | 0.386 µM | – | > 10 µM | –
CN1CCCC(c2cc(-c3ccc(F)cc3F)cc3c2CNC3=O)C1 (centres unmarked) [Compound B3, 6-(2,4-difluorophenyl)-4-(1-methylpiperidin-3-yl)isoindolin-1-one] | 1.49 µM | – | > 10 µM | –
CN1C(=O)CN=C(c2ccccc2)c2cc(Cl)ccc21 [diazepam] | – | – | – | freezing behavior [2]: significantly decreased
O=C1NCc2c1cc(-c1ccc(F)cc1F)cc2N1CCn2nccc21 [Compound A2, 6-(2,4-difluorophenyl)-4-(2,3-dihydro-1H-imidazo[1,2-b]pyrazol-1-yl)isoindolin-1-one] | 0.218 µM | Inactive | – | –
CC(C)n1nccc1-c1cc(C2=CCOCC2)cc2c1CNC2=O [Compound 86, 6-(3,6-dihydro-2H-pyran-4-yl)-4-(1-isopropyl-1H-pyrazol-5-yl)isoindolin-1-one] | 0.175 µM | Inactive | – | –
O=C1NCc2c(CN3CCOCC3)cc(-c3ccc(F)cc3F)cc21 [Compound B2, 6-(2,4-difluorophenyl)-4-(morpholinomethyl)isoindolin-1-one] | 0.182 µM | – | > 10 µM | –
CC(C)Oc1ncccc1-c1cc(-c2ccc(F)cc2F)cc2c1CNC2=O [Compound 75, 6-(2,4-difluorophenyl)-4-(2-isopropoxypyridin-3-yl)isoindolin-1-one] | 0.865 µM | – | > 10 µM | –
CC(C)(O)C1CCN(c2cc(-c3ccc(F)cc3F)cc3c2CNC3=O)C1 (centres unmarked) [Compound A8, 6-(2,4-difluorophenyl)-4-(3-(2-hydroxypropan-2-yl)pyrrolidin-1-yl)isoindolin-1-one] | 0.65 µM | Inactive | – | –
Cc1nc(F)ccc1-c1cc(-c2ccc(F)cc2F)cc2c1CNC2=O [Compound 72, 6-(2,4-difluorophenyl)-4-(6-fluoro-2-methylpyridin-3-yl)isoindolin-1-one] | 0.104 µM | – | > 10 µM | –
CC1(C)CN(c2cc(-c3ccc(F)cc3F)cc3c2CNC3=O)CC(C)(C)O1 [Compound A6, 6-(2,4-difluorophenyl)-4-(2,2,6,6-tetramethylmorpholino)isoindolin-1-one] | 2.09 µM | Inactive | – | –
CC(C)Cn1nccc1-c1cc(-c2ccc(F)cc2F)cc2c1CNC2=O [Compound 76, 6-(2,4-difluorophenyl)-4-(1-isobutyl-1H-pyrazol-5-yl)isoindolin-1-one] | 0.179 µM | – | > 10 µM | –
O=C1NCc2c1cc(-c1ccc(F)cc1F)cc2-c1cccnc1N1CCCC1 [Compound 66, 6-(2,4-difluorophenyl)-4-(2-(pyrrolidin-1-yl)pyridin-3-yl)isoindolin-1-one] | 0.528 µM | – | > 10 µM | –
CC1(C#N)CCN(c2cc(-c3ccc(F)cc3F)cc3c2CNC3=O)C1 (centres unmarked) [Compound A7, 1-(6-(2,4-difluorophenyl)-1-oxoisoindolin-4-yl)-3-methylpyrrolidine-3-carbonitrile] | 0.361 µM | Inactive | – | –
O=C1NCc2c1cc(-c1ccc(F)cc1F)cc2-c1ccc(=O)n(C(F)F)c1 [Compound 40, 4-(1-(difluoromethyl)-6-oxo-1,6-dihydropyridin-3-yl)-6-(2,4-difluorophenyl)isoindolin-1-one] | 0.066 µM | Inactive | – | –
O=C1NCc2c1cc(-c1ccc(F)cc1F)cc2-c1ccc[nH]c1=O [Compound 64, 6-(2,4-difluorophenyl)-4-(2-oxo-1,2-dihydropyridin-3-yl)isoindolin-1-one] | 0.298 µM | Inactive | – | –
Cc1cc(-c2cc(-c3ccc(F)cc3F)cc3c2CNC3=O)cnn1 [Compound 13, 6-(2,4-difluorophenyl)-4-(6-methylpyridazin-4-yl)isoindolin-1-one] | 0.163 µM | Inactive | – | –
